From US11566007B2, “Ras inhibitors” (Revolution Medicines, Inc., priority 2019, dated 2023)
pIC50: −log10 of the molar value.

Experiments:
NRAS WT = NRAS WT (Homo sapiens (Human), UniProt P01111+P62937); assay: Ras-Raf (BRAF RBD) disruption / FRET / MOA assay, NRAS WT; assay type: biochemical; details: read-out: IC50* NRAS WT FRET data
How it was run: (§1)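 TR-FRET disruption of nucleotide-loaded Ras binding to BRAF RBD via compound-driven ternary complex with cyclophilin A. Compound as 10-point 3-fold series from 30 μM final, 3 h at 25° C, then anti-His Eu-W1024 (10 nM) and anti-GST allophycocyanin (50 nM) for 1.5 h. IC50 from decreased FRET ratio versus DMSO.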

KRAS G13D = KRAS G13D (Homo sapiens (Human), UniProt P01116+P62937, G13D); assay: Ras-Raf (BRAF RBD) disruption / FRET / MOA assay, KRAS G13D; assay type: biochemical; details: read-out: IC50* KRAS G13D FRET data
Chain of KRAS G13D (P01116-2 other isoform, or with tags, fused parts or gaps G13D): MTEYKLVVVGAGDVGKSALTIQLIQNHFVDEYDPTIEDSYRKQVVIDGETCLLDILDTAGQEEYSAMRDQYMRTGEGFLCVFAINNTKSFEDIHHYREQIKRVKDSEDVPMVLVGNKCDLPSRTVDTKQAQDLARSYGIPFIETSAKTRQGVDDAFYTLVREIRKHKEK
Chain of KRAS G13D (P62937 whole entry): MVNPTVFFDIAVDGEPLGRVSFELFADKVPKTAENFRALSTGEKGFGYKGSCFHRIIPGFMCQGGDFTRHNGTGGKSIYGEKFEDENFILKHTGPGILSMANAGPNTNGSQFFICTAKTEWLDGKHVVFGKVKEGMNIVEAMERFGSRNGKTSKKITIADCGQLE
How it was run: (§2)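 Compounds, top final concentration 30 μM in 10-point 3-fold series, incubated 3 hours at 25° C with nucleotide-loaded Ras, cyclophilin A and BRAF RBD.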

NRAS G12C = NRAS G12C (Homo sapiens (Human), UniProt P01111+P62937, G12C); assay: Ras-Raf (BRAF RBD) disruption / FRET / MOA assay, NRAS G12C; assay type: biochemical; details: read-out: IC50* NRAS G12C FRET data
Chain of NRAS G12C (P01111 whole entry G12C): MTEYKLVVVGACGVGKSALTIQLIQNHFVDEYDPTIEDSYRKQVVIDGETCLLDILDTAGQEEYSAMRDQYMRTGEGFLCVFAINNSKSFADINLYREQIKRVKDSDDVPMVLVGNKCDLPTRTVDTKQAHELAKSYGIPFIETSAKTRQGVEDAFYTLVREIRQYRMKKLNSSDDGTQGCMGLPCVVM
Chain of NRAS G12C (P62937 whole entry): as the sequence (P62937 whole entry) above
How it was run: as §2

K-Ras G13C = K-Ras G13C (Homo sapiens (Human), UniProt P01116+P62937, G13C); assay: Ras-Raf (BRAF RBD) disruption / FRET / MOA assay, KRAS G13C; assay type: biochemical; details: KRAS G13C; Ras-Raf disruption/FRET/MOA assay; read-out: IC50* KRAS G13C FRET data
Chain of K-Ras G13C (P01116-2 other isoform, or with tags, fused parts or gaps G13C): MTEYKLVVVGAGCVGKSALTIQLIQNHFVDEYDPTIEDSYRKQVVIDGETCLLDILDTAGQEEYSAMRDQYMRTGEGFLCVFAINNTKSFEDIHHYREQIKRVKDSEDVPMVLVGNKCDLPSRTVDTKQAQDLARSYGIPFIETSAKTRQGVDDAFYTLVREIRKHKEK
Chain of K-Ras G13C (P62937 whole entry): as the sequence (P62937 whole entry) above
How it was run: as §2

KRAS WT = KRAS WT (Homo sapiens (Human), UniProt P01116+P62937); assay: Ras-Raf (BRAF RBD) disruption / FRET / MOA assay, KRAS WT; assay type: biochemical; details: read-out: IC50* KRAS WT FRET data
Chain of KRAS WT (P01116-2 other isoform, or with tags, fused parts or gaps): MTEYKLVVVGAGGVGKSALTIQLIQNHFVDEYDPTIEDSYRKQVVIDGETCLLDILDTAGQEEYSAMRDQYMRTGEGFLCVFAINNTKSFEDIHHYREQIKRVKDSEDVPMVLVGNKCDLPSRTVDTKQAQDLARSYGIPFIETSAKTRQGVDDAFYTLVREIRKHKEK
Chain of KRAS WT (P62937 whole entry): as the sequence (P62937 whole entry) above
How it was run: as §2

KRAS G12V = KRAS G12V (Homo sapiens (Human), UniProt P01116+P62937, G12V); assay: Ras-Raf (BRAF RBD) disruption / FRET / MOA assay, KRAS G12V; assay type: biochemical; details: read-out: IC50* KRAS G12V FRET data
Chain of KRAS G12V (P01116-2 other isoform, or with tags, fused parts or gaps G12V): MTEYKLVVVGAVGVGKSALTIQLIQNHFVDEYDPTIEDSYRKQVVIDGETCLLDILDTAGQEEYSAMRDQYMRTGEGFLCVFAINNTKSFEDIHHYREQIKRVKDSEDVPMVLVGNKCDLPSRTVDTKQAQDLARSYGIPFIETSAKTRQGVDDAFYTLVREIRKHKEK
Chain of KRAS G12V (P62937 whole entry): as the sequence (P62937 whole entry) above
How it was run: as §2

NCI-H358 (K-Ras G12C) = assay: CellTiter-Glo cell viability assay, NCI-H358; assay type: cell-based, human; details: Homo sapiens, NCI-H358, 120 h, NCI-H358, 5-day treatment; class symbols; read-out: Additional H358 Cell Viability assay data (K-Ras G12C, IC50)
How it was run: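 Compounds dispensed directly onto seeded K-Ras mutant cells; plates read on day 5 after ~30 min equilibration to room temperature, by CellTiter-Glo luminescence. Signal normalized as (sample/mean DMSO)×100, then fitted to a four-parameter logistic curve.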

KRAS G12S = KRAS G12S (Homo sapiens (Human), UniProt P01116+P62937, G12S); assay: Ras-Raf (BRAF RBD) disruption / FRET / MOA assay, KRAS G12S; assay type: biochemical; details: Ras-Raf disruption/FRET/MOA assay; class symbols; read-out: KRAS G12S FRET data IC50
Chain of KRAS G12S (P01116-2 other isoform, or with tags, fused parts or gaps G12S): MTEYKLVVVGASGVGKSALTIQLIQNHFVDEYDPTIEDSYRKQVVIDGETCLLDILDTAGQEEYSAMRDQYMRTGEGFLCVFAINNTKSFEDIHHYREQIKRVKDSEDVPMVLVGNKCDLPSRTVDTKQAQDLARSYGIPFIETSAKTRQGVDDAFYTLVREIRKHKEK
Chain of KRAS G12S (P62937 whole entry): as the sequence (P62937 whole entry) above
How it was run: as §2

NRAS Q61R = NRAS Q61R (Homo sapiens (Human), UniProt P01111+P62937, Q61R); assay: Ras-Raf (BRAF RBD) disruption / FRET / MOA assay, NRAS Q61R; assay type: biochemical; details: NRAS Q61R; Ras-Raf disruption/FRET/MOA assay; read-out: IC50* NRAS Q61R FRET data
Chain of NRAS Q61R (P01111 whole entry Q61R): as the sequence (P01111 whole entry G12C) above, with C12G, Q61R counted along it
Chain of NRAS Q61R (P62937 whole entry): as the sequence (P62937 whole entry) above
How it was run: as §1

KRAS G12D = KRAS G12D (Homo sapiens (Human), UniProt P01116+P62937, G12D); assay: Ras-Raf (BRAF RBD) disruption / FRET / MOA assay, KRAS G12D; assay type: biochemical; details: Ras-Raf disruption/FRET/MOA assay; class symbols; read-out: KRAS G12D FRET data IC50
Chain of KRAS G12D (P01116-2 other isoform, or with tags, fused parts or gaps G12D): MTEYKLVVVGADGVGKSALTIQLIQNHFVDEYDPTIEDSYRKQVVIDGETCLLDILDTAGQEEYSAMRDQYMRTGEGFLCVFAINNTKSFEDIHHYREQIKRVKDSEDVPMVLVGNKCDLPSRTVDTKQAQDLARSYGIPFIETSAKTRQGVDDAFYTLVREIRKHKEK
Chain of KRAS G12D (P62937 whole entry): as the sequence (P62937 whole entry) above
How it was run: as §2

K-Ras G12C = K-Ras G12C (Homo sapiens (Human), UniProt P01116+P62937, G12C); assay: Ras-Raf (BRAF RBD) disruption / FRET / MOA assay, KRAS G12C; assay type: biochemical; details: KRAS G12C; Ras-Raf disruption/FRET/MOA assay; read-out: IC50* KRAS G12C FRET data
Chain of K-Ras G12C (P01116-2 other isoform, or with tags, fused parts or gaps G12C): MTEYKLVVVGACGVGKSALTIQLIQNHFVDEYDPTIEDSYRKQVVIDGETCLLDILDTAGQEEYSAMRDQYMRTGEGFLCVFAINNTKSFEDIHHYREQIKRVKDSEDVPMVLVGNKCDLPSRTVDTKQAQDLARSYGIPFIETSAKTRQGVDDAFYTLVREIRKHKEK
Chain of K-Ras G12C (P62937 whole entry): as the sequence (P62937 whole entry) above
How it was run: as §2

KRAS Q61H = KRAS Q61H (Homo sapiens (Human), UniProt P01116+P62937, Q61H); assay: Ras-Raf (BRAF RBD) disruption / FRET / MOA assay, KRAS Q61H; assay type: biochemical; details: Ras-Raf disruption/FRET/MOA assay; class symbols; read-out: KRAS Q61H FRET data IC50
Chain of KRAS Q61H (P01116-2 other isoform, or with tags, fused parts or gaps Q61H): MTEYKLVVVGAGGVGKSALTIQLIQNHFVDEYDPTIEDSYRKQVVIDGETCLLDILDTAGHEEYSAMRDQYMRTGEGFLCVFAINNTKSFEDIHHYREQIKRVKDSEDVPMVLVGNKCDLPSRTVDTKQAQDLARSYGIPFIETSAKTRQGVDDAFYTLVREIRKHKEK
Chain of KRAS Q61H (P62937 whole entry): as the sequence (P62937 whole entry) above
How it was run: as §1

Chain of NRAS WT (P01111 whole entry): as the sequence (P01111 whole entry G12C) above, with C12G counted along it
Chain of NRAS WT (P62937 whole entry): as the sequence (P62937 whole entry) above

SMILES | pIC50 (NRAS WT) | pIC50 (KRAS G13D) | pIC50 (NRAS G12C) | pIC50 (K-Ras G13C) | pIC50 (KRAS WT) | pIC50 (KRAS G12V) | pIC50 (NCI-H358 (K-Ras G12C)) | pIC50 (KRAS G12S) | pIC50 (NRAS Q61R) | pIC50 (KRAS G12D) | pIC50 (K-Ras G12C) | pIC50 (KRAS Q61H)
CO[C@@H](C)c1ncccc1-c1c2c3cc(ccc3n1CC(F)(F)F)-c1cc(cc(C(F)F)c1)C[C@H](NC(=O)[C@@H](COC1CN(C(=O)C#CC(C)(C)N(C)C)C1)C(C)C)C(=O)N1CCC[C@H](N1)C(=O)OCC(C)(C)C2 (atropisomer, axis not shown) [Example A374] | < 5.00 | < 5.00 | 6.00 to 7.00 | < 5.00 | < 5.00 | < 5.00 | 7.00 to 8.00 | < 5.00 | < 5.00 | < 5.00 | 6.00 to 7.00 | < 5.00
CCn1c(-c2cccnc2[C@H](C)OC)c2c3cc(ccc31)-c1csc(n1)C[C@H](NC(=O)CCO[C@H]1CCN(C(=O)C#CC(C)(C)N3CCC3)C1)C(=O)N1CCC[C@H](N1)C(=O)OCC(C)(C)C2 (atropisomer, axis not shown) [Example A381] | 5.00 to 6.00 | 5.00 to 6.00 | 7.00 to 8.00 | 5.00 to 6.00 | 5.00 to 6.00 | 5.00 to 6.00 | 7.00 to 8.00 | 5.00 to 6.00 | 5.00 to 6.00 | 5.00 to 6.00 | > 8.00 | 5.00 to 6.00
C=CC(=O)N(C)C[C@@H]1CCN1C(=O)N(C)[C@H](C(=O)N[C@H]1Cc2nc(cs2)-c2ccc3c(c2)c(c(-c2cccnc2[C@H](C)OC)n3CC)CC(C)(C)COC(=O)[C@@H]2CCCN(N2)C1=O)C(C)C (atropisomer, axis not shown) [Example A390] | 5.00 to 6.00 | 5.00 to 6.00 | 6.00 to 7.00 | 6.00 to 7.00 | 5.00 to 6.00 | 5.00 to 6.00 | 6.00 to 7.00 | 5.00 to 6.00 | 5.00 to 6.00 | 5.00 to 6.00 | 6.00 to 7.00 | 6.00 to 7.00
C=CC(=O)N1CC[C@H](C(=O)N(C)[C@H](C(=O)N[C@H]2Cc3cccc(c3)-c3ccc4c(c3)c(c(-c3cc(C5CN(C)C5)cnc3[C@H](C)OC)n4CC)CC(C)(C)COC(=O)[C@@H]3CCCN(N3)C2=O)C(C)C)C1 (atropisomer, axis not shown) [Example A392] | 5.00 to 6.00 | < 5.00 | 6.00 to 7.00 | 5.00 to 6.00 | 5.00 to 6.00 | 5.00 to 6.00 | 7.00 to 8.00 | 5.00 to 6.00 | 5.00 to 6.00 | < 5.00 | 6.00 to 7.00 | 5.00 to 6.00
C=CC(=O)N1CC[C@H](C(=O)N(C)[C@H](C(=O)N[C@H]2Cc3cccc(n3)-c3ccc4c(c3)c(c(-c3cccnc3[C@H](C)OC)n4CC)CC(C)(C)COC(=O)[C@@H]3CCCN(N3)C2=O)C(C)C)C1 (atropisomer, axis not shown) [Example A442] | < 5.00 | < 5.00 | 6.00 to 7.00 | 5.00 to 6.00 | < 5.00 | < 5.00 | 7.00 to 8.00 | 5.00 to 6.00 | 5.00 to 6.00 | < 5.00 | 6.00 to 7.00 | 5.00 to 6.00
C=CC(=O)N1CC[C@H](C(=O)N(C)[C@H](C(=O)N[C@H]2Cc3cccc(c3)-c3ccc4c(c3)c(c(-c3cccnc3[C@H](C)OC)n4CC3COC3)CC(C)(C)COC(=O)[C@@H]3CCCN(N3)C2=O)C(C)C)C1 (atropisomer, axis not shown) [Example A481] | 5.00 to 6.00 | < 5.00 | 6.00 to 7.00 | 5.00 to 6.00 | 5.00 to 6.00 | 5.00 to 6.00 | 7.00 to 8.00 | 5.00 to 6.00 | 5.00 to 6.00 | < 5.00 | 6.00 to 7.00 | 5.00 to 6.00
